Data taken from patent US8163724B2, “Glucocorticosteroids, processes for their preparation, pharmaceutical compositions containing them and their use in therapy” (AstraZeneca AB, priority 2007, dated 2012).
pIC50: −log10 of the molar value.

molecular target: T1, recombinant human GR (Homo sapiens, UniProt P04150); test: Human Glucocorticoid Receptor (GR) Assay (fluorescence polarization, Panvera/Invitrogen kit); type: binding; conditions: fluorescence polarization; GS Red tracer; 2 hours at room temperature; 100% control 10 μM Dexamethasone; read-out: Inhibition of GR binding, IC50
T1 construct: purchased Panvera/Invitrogen P2812 (kit P2893)
T1 sequence (P04150 1-777): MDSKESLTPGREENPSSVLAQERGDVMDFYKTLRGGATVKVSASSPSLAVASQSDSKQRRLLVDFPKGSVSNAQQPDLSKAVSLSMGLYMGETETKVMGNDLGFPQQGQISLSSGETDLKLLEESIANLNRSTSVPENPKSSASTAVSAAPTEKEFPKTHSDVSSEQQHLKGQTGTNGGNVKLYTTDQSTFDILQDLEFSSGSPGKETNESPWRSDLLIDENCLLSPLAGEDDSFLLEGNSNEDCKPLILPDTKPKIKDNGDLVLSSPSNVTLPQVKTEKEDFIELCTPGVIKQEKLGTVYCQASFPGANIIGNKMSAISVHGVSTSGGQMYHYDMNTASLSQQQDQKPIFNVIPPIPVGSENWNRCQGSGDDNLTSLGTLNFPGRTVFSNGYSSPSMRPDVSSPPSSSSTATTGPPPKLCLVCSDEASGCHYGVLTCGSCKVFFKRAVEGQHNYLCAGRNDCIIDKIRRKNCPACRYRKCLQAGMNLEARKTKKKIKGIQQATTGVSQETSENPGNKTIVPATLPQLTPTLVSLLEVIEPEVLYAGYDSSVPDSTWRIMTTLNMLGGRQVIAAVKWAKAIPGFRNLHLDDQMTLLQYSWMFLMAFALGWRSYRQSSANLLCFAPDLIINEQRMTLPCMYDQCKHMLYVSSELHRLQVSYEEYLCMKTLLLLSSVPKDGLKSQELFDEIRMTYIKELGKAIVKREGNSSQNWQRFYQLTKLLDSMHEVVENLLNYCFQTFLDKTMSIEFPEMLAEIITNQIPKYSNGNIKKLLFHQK
Procedure: Human Glucocorticoid Receptor (GR) Assay
The assay is based on a commercial kit from Panvera/Invitrogen (Part number P2893). The assay technology is fluorescence polarization. […] The GR and Stabilizing Peptide reagents are stored at −70° C. while the GS Red is stored at −20° C. Also included in the kit are 1M DTT (Panvera, Part number P2325, stored at −20° C.) and GR Screening buffer 10× (Panvera, Part number P2814, stored at −70° C. initially but once thawed stored at room temperature). Avoid repeated freeze/thaws for all reagents. The GR Screening buffer 10× comprises 100 mM potassium phosphate, 200 mM sodium molybdate, 1 mM EDTA and 20% DMSO.
0% control was 100% DMSO and 100% control was 10 μM Dexamethasone. Background solution (8 μL; assay buffer 10×, Stabilizing Peptide, DTT and ice cold MQ water) was added to the background wells. GS Red solution (7 μL; assay buffer 10×, Stabilizing Peptide, DTT, GS Red and ice cold water) was added to all wells except background wells. GR solution (7 μL; assay buffer 10×, Stabilizing Peptide, DTT, GR and ice cold water) was added to all wells. The plate was sealed and incubated in a dark at room temperature for 2 hours.

Structure (SMILES) | pIC50
Cc1nnsc1C(=O)O[C@]1(C(=O)SCC#N)CC[C@H]2[C@@H]3CCC4=Cc5c(cnn5-c5ccc(F)cc5)C[C@]4(C)[C@H]3[C@@H](O)C[C@@]21C [Example 6, (1R,3aS,3bS,10aR,10bS,11S,12aS)-1-{[(Cyanomethyl)thio]carbonyl}-7-(4-fluorophenyl)-11-hydroxy-10a,12a-dimethyl-1,2,3,3a,3b,4,5,7,10,10a,10b,11,12,12a-tetradecahydrocyclopenta[5,6]naphtho[1,2-f]indazol-1-yl 4-methyl-1,2,3-thiadiazole-5-carboxylate] | 8.23
C[C@]12Cc3cnn(-c4ccc(F)cc4)c3C=C1CC[C@@H]1[C@@H]2[C@@H](O)C[C@@]2(C)[C@H]1CC[C@]2(OC(=O)c1ccco1)C(=O)SCC#N [Example 7, (1R,3aS,3bS,10aR,10bS,11S,12aS)-1-{[(Cyanomethyl)thio]carbonyl}-7-(4-fluorophenyl)-11-hydroxy-10a,12a-dimethyl-1,2,3,3a,3b,4,5,7,10,10a,10b,11,12,12a-tetradecahydrocyclopenta[5,6]naphtho[1,2-f]indazol-1-yl 2-furoate] | 8.25
C[C@]12Cc3cnn(-c4ccc(F)cc4)c3C=C1CC[C@@H]1[C@@H]2[C@@H](O)C[C@@]2(C)[C@H]1CC[C@]2(OC(=O)c1ccco1)C(=O)SCF [Example 8, (1R,3aS,3bS,10aR,10bS,11S,12aS)-1-{[(Fluoromethyl)thio]carbonyl}-7-(4-fluorophenyl)-11-hydroxy-10a,12a-dimethyl-1,2,3,3a,3b,4,5,7,10,10a,10b,11,12,12a-tetradecahydrocyclopenta[5,6]naphtho[1,2-f]indazol-1-yl 2-furoate] | 8.33
Cc1ncsc1C(=O)O[C@]1(C(=O)OCC#N)CC[C@H]2[C@@H]3CCC4=Cc5c(cnn5-c5ccc(F)cc5)C[C@]4(C)[C@H]3[C@@H](O)C[C@@]21C [Example 9, Cyanomethyl(1R,3aS,3bS,10aR,10bS,11S,12aS)-7-(4-fluorophenyl)-11-hydroxy-10a,12a-dimethyl-1-{[(4-methyl-1,3-thiazol-5-yl)carbonyl]oxy}-1,2,3,3a,3b,4,5,7,10,10a,10b,11,12,12a-tetradecahydrocyclopenta[5,6]naphtho[1,2-f]indazole-1-carboxylate] | 8.03
CCC(=O)O[C@]1(C(=O)SCC#N)CC[C@H]2[C@@H]3CCC4=Cc5c(cnn5-c5ccc(F)cc5)C[C@]4(C)[C@H]3[C@@H](O)C[C@@]21C [Example 10, (1R,3aS,3bS,10aR,10bS,11S,12aS)-1-{[(Cyanomethyl)thio]carbonyl}-7-(4-fluorophenyl)-11-hydroxy-10a,12a-dimethyl-1,2,3,3a,3b,4,5,7,10,10a,10b,11,12,12a-tetradecahydrocyclopenta[5,6]naphtho[1,2-f]indazol-1-yl propionate] | 8.49
CCC(=O)O[C@]1(C(=O)SCC(=O)OC)CC[C@H]2[C@@H]3CCC4=Cc5c(cnn5-c5ccc(F)cc5)C[C@]4(C)[C@H]3[C@@H](O)C[C@@]21C [Example 11, (1R,3aS,3bS,10aR,10bS,11S,12aS)-7-(4-Fluorophenyl)-11-hydroxy-1-{[(2-methoxy-2-oxoethyl)thio]carbonyl}-10a,12a-dimethyl-1,2,3,3a,3b,4,5,7,10,10a,10b,11,12,12a-tetradecahydrocyclopenta[5,6]naphtho[1,2-f]indazol-1-yl propanoate] | 8.42
CCC(=O)O[C@]1(C(=O)SC(C)C#N)CC[C@H]2[C@@H]3CCC4=Cc5c(cnn5-c5ccc(F)cc5)C[C@]4(C)[C@H]3[C@@H](O)C[C@@]21C (stereo partly drawn) [Example 12, (1R,3aS,3bS,10aR,10bS,11S,12aS)-1-{[(1-Cyanoethyl)thio]carbonyl}-7-(4-fluoro-phenyl)-11-hydroxy-10a,12a-dimethyl-1,2,3,3a,3b,4,5,7,10,10a,10b,11,12,12a-tetradecahydrocyclopenta[5,6]naphtho[1,2-f]indazol-1-yl propanoate] | 8.24
